Measurements reported in ChEMBL document CHEMBL1201862, “PubChem BioAssay data set” (2004).
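1) Cells in 96-well plates. 2) Compound, 48 h, 5 concentrations. 3) Linear interpolation between surrounding doses. 4) Unreached endpoint = highest concentration. At the GI50, growth is halved.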 Active and inactive are the calls of the source. Cut-off read from the data, not from the text of the source: active = GI50 up to about 1.1 µM and inactive = higher.

Assays:
Experiment in all cases: growth of human tumour cells (NCI), 48 h
HOP-92 = test system: HOP-92
NCI-H23 = test system: NCI-H23
SK-MEL-5 = test system: SK-MEL-5
CAKI-1 = test system: CAKI-1
KM12 = test system: KM12
MDA-MB-435 = test system: MDA-MB-435
MOLT-4 = test system: MOLT-4
NCI-H522 = test system: NCI-H522
DU-145 = test system: DU-145
A549 = test system: A549
OVCAR-4 = test system: OVCAR-4
OVCAR-3 = test system: OVCAR-3
SW-620 = test system: SW-620
SF-539 = test system: SF-539
SK-OV-3 = test system: SK-OV-3
RXF 393 = test system: RXF 393
CCRF-CEM = test system: CCRF-CEM
HCT-116 = test system: HCT-116
BT-549 = test system: BT-549
UACC-257 = test system: UACC-257
Hs-578T = test system: Hs-578T
HOP-62 = test system: HOP-62
UO-31 = test system: UO-31
IGROV-1 = test system: IGROV-1
MDA-MB-231 = test system: MDA-MB-231
RPMI-8226 = test system: RPMI-8226
HCT-15 = test system: HCT-15
M14 = test system: M14
SNB-75 = test system: SNB-75
EKVX = test system: EKVX
A498 = test system: A498
OVCAR-5 = test system: OVCAR-5
K562 = test system: K562
U-251 = test system: U-251
786-0 = test system: 786-0
LOX IMVI = test system: LOX IMVI
NCI/ADR-RES = test system: NCI/ADR-RES
MCF7 = test system: MCF7
UACC-62 = test system: UACC-62
SK-MEL-2 = test system: SK-MEL-2
HT-29 = test system: HT-29
HCC 2998 = test system: HCC 2998
NCI-H460 = test system: NCI-H460
SNB-19 = test system: SNB-19
MDA-N = test system: MDA-N
SN12C = test system: SN12C
OVCAR-8 = test system: OVCAR-8
SF-268 = test system: SF-268
TK-10 = test system: TK-10
SF-295 = test system: SF-295
COLO 205 = test system: COLO 205
NCI-H226 = test system: NCI-H226
ACHN = test system: ACHN
PC-3 = test system: PC-3
HL-60 = test system: HL-60
Malme-3M = test system: Malme-3M
SR = test system: SR

For `CC(=O)O[C@H]1C(=O)[C@]2(C)[C@@H](OC(=O)OCCC(O)CO)C[C@H]3OC[C@@]3(OC(C)=O)[C@H]2[C@H](OC(=O)c2ccccc2)[C@]2(O)C[C@H](OC(=O)[C@H](O)[C@@H](NC(=O)c3ccccc3)c3ccccc3)C(C)=C1C2(C)C` (some centres not stated), the GI50 (HOP-92) was 8630 nM (inactive), the GI50 (NCI-H23) was < 12.7 nM (active) and the GI50 (SK-MEL-5) was 17.2 nM (active). For the same compound, the GI50 (CAKI-1) was 2260 nM (inactive), the GI50 (KM12) was < 10 nM (active) and the GI50 (MDA-MB-435) was < 10 nM (active). The GI50 (MOLT-4) was < 10.6 nM (active), the GI50 (NCI-H522) was < 10 nM (active) and the GI50 (DU-145) was 12.5 nM (active). For the same compound, the GI50 (A549) was 35 nM (active), the GI50 (OVCAR-4) was 13900 nM (inactive) and the GI50 (OVCAR-3) was < 10 nM (active). For the same compound, the GI50 (SW-620) was < 25.1 nM (active), the GI50 (SF-539) was < 10 nM (active) and the GI50 (SK-OV-3) was 30.7 nM (active). The GI50 (RXF 393) was 213 nM (active), the GI50 (CCRF-CEM) was < 10 nM (active) and the GI50 (HCT-116) was < 10 nM (active). For the same compound, the GI50 (BT-549) was 66.7 nM (active), the GI50 (UACC-257) was 37 nM (active) and the GI50 (Hs-578T) was < 10 nM (active). For the same compound, the GI50 (HOP-62) was 96.4 nM (active), the GI50 (UO-31) was 8610 nM (inactive) and the GI50 (IGROV-1) was < 14.2 nM (active). For the same compound, the GI50 (MDA-MB-231) was 28.8 nM (active), the GI50 (RPMI-8226) was < 10 nM (active) and the GI50 (HCT-15) was 2140 nM. For the same compound, the GI50 (M14) was 46.1 nM (active), the GI50 (SNB-75) was < 10 nM (active) and the GI50 (EKVX) was 121 nM (active). For the same compound, the GI50 (A498) was 783 nM (active), the GI50 (OVCAR-5) was 30.3 nM (active) and the GI50 (K562) was < 10 nM (active). For the same compound, the GI50 (U-251) was 13.5 nM (active), the GI50 (786-0) was 80 nM (active) and the GI50 (LOX IMVI) was < 10 nM (active). The GI50 (NCI/ADR-RES) was 15200 nM (inactive), the GI50 (MCF7) was < 10 nM (active) and the GI50 (UACC-62) was 10.8 nM (active). The GI50 (SK-MEL-2) was 26.5 nM (active), the GI50 (HT-29) was < 10 nM (active) and the GI50 (HCC 2998) was < 10 nM (active). For the same compound, the GI50 (NCI-H460) was < 12.6 nM (active), the GI50 (SNB-19) was 44.5 nM (active) and the GI50 (MDA-N) was < 10 nM (active). The GI50 (SN12C) was < 16.6 nM (active), the GI50 (OVCAR-8) was 46.3 nM (active) and the GI50 (SF-268) was < 17.1 nM (active). The GI50 (TK-10) was 2400 nM (inactive), the GI50 (SF-295) was 193 nM (active) and the GI50 (COLO 205) was < 10 nM (active). For the same compound, the GI50 (NCI-H226) was < 22.8 nM (active), the GI50 (ACHN) was 3480 nM (inactive) and the GI50 (PC-3) was < 12.8 nM (active). The GI50 (HL-60) was < 10 nM (active), the GI50 (Malme-3M) was < 10 nM (active) and the GI50 (SR) was < 10 nM (active).
